Data as given in ChEMBL document CHEMBL4689842, “EUbOPEN Chemogenomics Library wave 1” (2021).

Assays:
HEK-293T = test: Incucyte cell viability with HEK293T; type: toxicity, cell-based; settings: human, 10 µM, compound concentration 10 uM
U2OS = test: Incucyte cell viability with U2OS; type: toxicity, cell-based; settings: human, 10 µM, compound concentration 10 uM
[1] = 0 h, replicate number 1, timepoint 0 hours
[2] = 6 h, replicate number 1, timepoint 6 hours
[3] = 12 h, replicate number 1, timepoint 12 hours
[4] = 18 h, replicate number 1, timepoint 18 hours
[5] = 24 h, replicate number 1, timepoint 24 hours
[6] = 0 h, replicate number 2, timepoint 0 hours
[7] = 6 h, replicate number 2, timepoint 6 hours
[8] = 12 h, replicate number 2, timepoint 12 hours
[9] = 24 h, replicate number 2, timepoint 24 hours
[10] = 18 h, replicate number 2, timepoint 18 hours
Note: filed as whole numbers so only -1 and 0 and 1 occur.

SMILES | Growth Rate (HEK-293T; [1]) | Growth Rate (HEK-293T; [2]) | Growth Rate (HEK-293T; [3]) | Growth Rate (HEK-293T; [4]) | Growth Rate (HEK-293T; [5]) | Growth Rate (U2OS; [6]) | Growth Rate (U2OS; [2]) | Growth Rate (U2OS; [7]) | Growth Rate (U2OS; [3]) | Growth Rate (U2OS; [4]) | Growth Rate (U2OS; [5]) | Growth Rate (HEK-293T; [6]) | Growth Rate (U2OS; [1]) | Growth Rate (U2OS; [8]) | Growth Rate (HEK-293T; [8]) | Growth Rate (HEK-293T; [9]) | Growth Rate (U2OS; [10]) | Growth Rate (U2OS; [9]) | Growth Rate (HEK-293T; [10])
CCOc1cc2ncc(C#N)c(Nc3ccc(OCc4ccccn4)c(Cl)c3)c2cc1NC(=O)/C=C/CN(C)C [NERATINIB] | 0 | 0 | 0 | 0 | 0 | 0 | 0 | 1 | 0 | 0 | 0 | – | – | – | – | – | – | – | –
CCc1cccc(CC)c1NC(=O)c1nn(C)c2c1CCc1cnc(Nc3ccc(C(=O)NC4CCN(C)CC4)cc3OC(F)(F)F)nc1-2 | – | 0 | 0 | 0 | 0 | 0 | 1 | 0 | 0 | 0 | 0 | – | – | – | – | – | – | – | –
CCc1cccc(CC)c1NC(=O)c1nn(C)c2c1CCc1cnc(Nc3ccc(N4CCN(C)CC4)cc3OC)nc1-2 | – | 0 | 0 | 0 | 0 | 0 | 1 | – | 0 | 0 | 0 | 0 | – | – | – | – | – | – | –
Cc1ccc(C(=O)Nc2cccc(C(F)(F)F)c2)cc1Nc1nc(-c2cccnc2)nc2c1cnn2C | 0 | 0 | 0 | 0 | 0 | – | 0 | – | 0 | 0 | 0 | – | – | – | – | – | – | – | –
O=C(Nc1cccnn1)N1CCC(=Cc2cccc(Oc3ccc(C(F)(F)F)cn3)c2)CC1 | – | 0 | 0 | 0 | 0 | – | 0 | – | 0 | 0 | 0 | 1 | 0 | 1 | – | – | – | – | –
O=C(Nc1ccc(-c2ccnc(Nc3ccc(N4CCOCC4)cc3)n2)cc1)[C@@H]1CCCN1 | 1 | 0 | 0 | 0 | 0 | 0 | – | – | 1 | 1 | 1 | – | – | – | – | – | – | – | –
COc1cc2ncnc(Nc3ccc(F)c(Cl)c3)c2cc1NC(=O)/C=C/CN1CCCCC1 [DACOMITINIB ANHYDROUS] | – | 0 | 0 | 0 | 0 | – | 0 | – | 0 | 0 | 0 | – | 0 | – | – | – | – | – | –
CNc1cc(Oc2cc(C(=O)Nc3cc(N4CCN(C)CC4)cc(C(F)(F)F)c3)ccc2C)ncn1 | – | 0 | 0 | 0 | 0 | 1 | 0 | – | 0 | 0 | 0 | – | 0 | – | – | – | – | – | –
Cc1cn(-c2cc(NC(=O)c3ccc(C)c(Nc4nccc(-c5cccnc5)n4)c3)cc(C(F)(F)F)c2)cn1 [NILOTINIB] | 0 | 0 | 1 | 1 | 0 | 0 | 0 | – | 0 | 0 | 0 | – | – | – | 0 | 1 | 1 | 1 | –
COc1ccc(-c2ccc3c(N4CCOCC4)nc(N4C[C@@H](C)O[C@@H](C)C4)nc3n2)cc1CO [Ku-0063794] | – | 0 | 0 | 0 | 0 | – | 1 | – | 1 | 0 | 0 | – | 0 | – | – | – | – | – | –
CN1CCN(C(=O)C(C)(C)c2ccc(C(=O)Nc3cn4cc(-c5cc(C(C)(C)C)cc(C(C)(C)C)c5)ccc4n3)cc2)CC1 [T3-CLK-N] | – | 0 | 0 | 0 | 0 | 0 | – | – | 1 | 0 | 0 | 1 | – | – | – | – | 1 | 1 | –
COc1cccc2cc(-c3nc([C@H]4CC[C@H](C(=O)O)CC4)n4ncnc(N)c34)[nH]c12 [OSI-027] | 1 | 0 | 0 | 0 | 0 | – | 1 | – | 1 | 0 | 0 | – | 1 | – | – | – | 1 | – | –
CN([C@@H](Cc1ccc(OS(=O)(=O)c2cccc3cnccc23)cc1)C(=O)N1CCN(c2ccccc2)CC1)S(=O)(=O)c1cccc2cnccc12 | – | 0 | 0 | 0 | 0 | 0 | 1 | – | 1 | 1 | 1 | 1 | – | – | – | – | – | – | –
CN(C)C(=O)C(CCN1CCC(O)(c2ccc(Cl)cc2)CC1)(c1ccccc1)c1ccccc1.Cl [LOPERAMIDE HYDROCHLORIDE] | – | 0 | 0 | 0 | 0 | – | 0 | – | 0 | 0 | 0 | 1 | – | – | – | – | – | – | –
C=C1/C(=C\C=C2/CCC[C@]3(C)[C@@H]([C@H](C)/C=C/[C@H](C)C(C)C)CC[C@@H]23)C[C@@H](O)C[C@@H]1O [DOXERCALCIFEROL] | 0 | 0 | 0 | 0 | 0 | – | – | – | 1 | 1 | 0 | – | 0 | 0 | – | – | 0 | – | –
CCn1c(=O)c(-c2ccc(-c3cncs3)cc2Cl)cc2cnc(Nc3ccc(N4CCN(C)CC4)cc3)nc21 | 0 | 0 | – | – | 1 | 1 | – | – | 0 | 0 | 0 | – | – | 1 | 0 | 0 | – | – | 1
CN1C2CCC1CC(OC(c1ccc(F)cc1)c1ccc(F)cc1)C2.Cl (centres undefined) | – | 0 | 0 | 0 | 0 | – | – | 0 | 1 | 0 | 0 | 1 | – | 0 | – | – | – | – | –
NC(=O)c1cccc(-c2cc(Nc3ccc(OC(F)(F)F)cc3)ncn2)c1 | 0 | 0 | 0 | 0 | 0 | 1 | 1 | – | 0 | 1 | 1 | – | – | – | – | – | 0 | 0 | –
Cl.Oc1ccc2c3c1O[C@H]1c4[nH]c5c(c4C[C@@]4(O)[C@@H](C2)N(CC2CC2)CC[C@]314)C[C@@]1(O)[C@H]2Cc3ccc(O)c4c3[C@@]1(CCN2CC1CC1)[C@H]5O4 | 0 | 1 | 1 | 1 | 1 | – | 0 | – | 1 | 1 | 1 | – | 0 | 0 | – | 0 | 0 | 0 | –
C[C@H]1Oc2cc(cnc2N)-c2c(nn(C)c2C#N)CN(C)C(=O)c2ccc(F)cc21 [LORLATINIB] | 0 | 0 | 0 | 0 | 0 | 1 | 1 | – | 1 | 1 | 1 | – | – | – | – | – | – | – | –
CNC(=O)c1ccc(Nc2nc(OC3CCCC3)c3c(-c4ccc5nc(C)oc5c4)c[nH]c3n2)c(OC)c1 | – | 0 | 0 | 0 | 0 | – | – | – | 1 | 0 | 0 | 1 | – | – | – | – | – | – | –
